“Also recorded” adds a separate entry of the source. Peptide text beside a SMILES is read from it. * marks the point of attachment. 5FAM = O=C1OC2(c3ccc(O)cc3Oc3cc(O)ccc32)c2ccc(C(=O)*)cc21
Tests used:
[1] = tested on: FZD CRD-Fc; assay: binding of 5FAM peptides to the FZD CRD-Fc panel; details: any members of the FZD CRD family
Procedure: Control experiments using 5FAM-Fz7-21S were performed in parallel. 5FAM-Fz7-21 or 5FAM-Fz721S was incubated with each of the aforementioned FZD CRD-Fcs overnight at 4° C. in PBS and resolved via SEC.
In FIGS. 3A-3I, 5FAM-Fz7-21 or 5FAM-Fz7-21S (50 nM in PBS) was incubated with increasing concentration of FZD CRD-Fc (2-fold serial dilutions), and fluorescence intensity was measured using either a Monolith NT.115 or NT.115Pico instrument (NanoTemper Technologies). EC50 values represent the 95% confidence interval of at least three independent experiments, excepting hFZD1 CRD-Fc+5FAM-Fz7-21S, which was done twice. EC50 ovalues were calculated with Prism Graphpad using the Log(agonist) vs. response [variable slope (four parameters) function: Y=Bottom+(Top-Bottom)/(1+10^((Log EC−X)*HillSlope))]. Plotted values represent the mean±s.e.m.

[2] = tested on: FZD CRD-Fc proteins; assay: fluorescence size-exclusion chromatography (FSEC) with FZD CRD-Fc proteins; assay type: binding; details: 1 μM peptide, 250 nM FZD CRD-Fc, overnight at 4° C.; FZD1, FZD2 and FZD7 CRD-Fc
Procedure: (§1) Fluorescence size-exclusion chromatography (FSEC) experiments were run using an AKTA FPLC system (General Electric Company) with UNICORN software package (version 5.31). Samples were resolved using a SEC3000 or SEC2000 (Phenomenex; Torrence, Calif.) column at 0.5 mL/min in phosphate buffer. Fluorescence was monitored using a FP-2020 Plus fluorescence detector (Jasco Analytical Instruments, Easton, Md.) in normal mode (excitation/emission, […]; gain=100; STD=32). All samples were prepared with a final DMSO concentration of 1% and incubated overnight at 4° C. prior to sample separation. FZD CRD-Fc samples were kept at ˜250 nM in the presence of excess 5FAM labeled peptide (1 μM). […]
Selective targeting of the FZD7 receptor subclass was also observed chromatographically. […] See FIGS. 4A and 4B, which provide representative fluorescence traces of 1 μM 5FAM-Fz7-21 and 1 μM 5FAM-Fz7-21S, respectively, incubated with various FZD CRD-Fc proteins (250 nM) overnight at 4° C. prior to analysis by FSEC. […] In FIG. 24A, molecular weight (MW) standards analyzed by UV absorption were plotted as a function of elution volume (Ve) over void volume (Vo). […] Measured values represent the mean±standard deviation (SD) of three independent experiments. […] Binding to recombinant FZD3 and 6 CRDs could not be assessed due to challenges with the expression of these proteins. […]

[3] = tested on: human sFRP1, sFRP2, sFRP3, sFRP4, or sFRP5; assay: FSEC with secreted Frizzled-related proteins; assay type: binding; details: sFRP ~250 nM, peptide 10 μM
Procedure: as §1, with “μM). Human secreted Frizzled-related proteins were maintained at ˜250 nM in the presence of excess 5FAM-labeled peptide (10 μM).” for “μM).”
For FIGS. 4C and 5C, values represent the mean±s.e.m. of three independent experiments. […] Samples were resolved using a SEC3000 column (Phenomenex; Torrence, Calif.) at 0.5 mL/min in phosphate buffer saline (PBS) and fluorescence was monitored with an FP-2020 Plus fluorescence detector (Jasco Analytical Instruments, Easton, Md.) using normal mode (excitation/emission […]); gain=100; STD=32. […] Molecular weights were determined by standards (BioRad catalogue number, 151-1901) run prior to sample runs.

[4] = tested on: Wnt3a-mediated β-catenin signaling in HEK293-TB cells; assay type: cell-based
[5] = tested on: Wnt3a-mediated stabilization of β-catenin in mouse L cells; assay: in-cell western of β-catenin protein in L cells treated with Wnt3a; assay type: cell-based
Procedure: DMSO controls were performed in parallel. Following treatment, the L-cells were fixed, permeabilized, probed with fluorescently labeled anti-β-catenin antibodies, and observed via in-cell western assay (i.e., as described in Hannoush, R. N. (2008) PLoS One 3, e3498) to assess β-catenin protein levels. The values in Table 7 are averages of at least 3 independent replicates, ±standard deviation.

[6] = tested on: receptor-independent β-catenin signaling in 6-BIO-treated HEK293-TB cells; assay: epistasis study, HEK293-TB cells stimulated with 6-BIO; assay type: cell-based; details: 10 μM 6-BIO, 6 hr; FIG. 2E
[7] = biological target: T1, hFZD7 CRD-His (Homo sapiens, UniProt O75084); assay: SEC-MALS of hFZD7 CRD-His incubated with peptide; assay type: binding
T1 construct: hFZD7 CRD-His [Gln33-Gly168] was expressed as a secreted protein in Trichoplusia ni cells expressing EndoH; made in house; host or cells: Trichoplusia ni cells expressing EndoH, treated with Kifunensine (baculovirus)
Procedure: Samples were resolved by a Superdex S200 3.2/300 column (General Electric Healthcare Life Science, Pittsburgh, Pa.; cat. no. 28990946) at 0.15 mL/min in 150 mM NaCl, 50 mM Tris-HCl pH 7.5 buffer with 1% DMSO final concentration. Runs were performed on a 1260 infinity HPLC (Agilent Technology, Santa Clara, Calif.) connected to a Dawn Heleos-II multi-angle static Light Scattering (MALS) detector and a Optilab T-rEX differential Refractive Index (dRI) detector (Wyatt Technologies, Santa Barbara, Calif.).
Samples were resolved by a Superdex S200 3.2/300 column (General Electric Healthcare Life Science, Pittsburgh, Pa.; 28990946) at a 0.15 mL/min in 150 mM NaCl, 50 mM Tris-HCl pH 7.5 buffer with 1% DMSO final concentration. Column was connected to a 1260 infinity HPLC (Agilent Technology, Santa Clara, Calif.) connected to a Dawn Heleos-II Multi-Angle static Light Scattering (MALS) detector and the Optilab T-rEX differential Refractive Index (dRI) detectors (Wyatt Technologies, Santa Barbara, Calif.).

[8] = tested on: Wnt5a binding to FZD1 CRD, FZD2 CRD, and FZD7 CRD; assay: ELISA of biotinylated Wnt5a binding to FZD CRD-Fc; details: FIGS. 22A, 22B
Procedure: (§2) 384-well Maxisorp plates (cat. no. 464718; Thermo Scientific) were incubated with 30 μL of Neutravidin (cat. no. 31000, Thermo Scientific; 2 μg/mL in PBS) overnight at 4° C. Plates were then washed with PBST and blocked with PBS/1% BSA for 1 hour at RT and then washed with PBST prior to further processing. The binding assay was conducted in 96 well plates (cat no. 83007-374; VWR) which were blocked with PBS/1% BSA overnight at 4° C. hFZD4 CRD-Fc or hFZD7 CRD-Fc (63 ng/mL) were incubated with either Bio-Wnt3a (25 ng/mL) or Bio-Wnt5a (50 ng/mL) in the presence of 4-fold serial dilutions of the indicated peptide in PBS overnight at 4° C. All assays included hFZD9 CRD-mIgG2A protein as a negative control. hFZD7 CRD-His was suspended in 150 mM NaCl, 50 mM Tris-HCl at pH 7.5 and when used in assays an equal volume of the same buffer control was used. The binding assay mixtures were transferred to the Neutravidin coated plates and incubated for ˜1 h at RT. The wells were then washed with PBST, incubated with anti-hIgG1-HRP (1:10,000 suspended in PBS supplemented with 1% BSA; cat. no. A18817, Invitrogen), and washed again with PBST. The signal was developed with the addition of TMB reagent (following the manufacturer's recommendation; KPL; 50-76-00) for 15 min prior to the addition of an equal volume of 1 M phosphoric acid for 10 min Absorbance was measured at 450 nm using a Tekan M1000 plate reader. Values were collected and plotted using Prism Graphpad software. All assay conditions using peptides were at 1% DMSO final concentration. […]
(§3) Briefly, the assays were performed using (a) FZD1 CRD-Fc, (b) FZD2 CRD-Fc, (c) FZD4 CRD-Fc, or (d) FZD7 CRD-Fc as the capture reagent and biotinylated-Wnt5a as the detection reagent. […] Streptavidin-HRP was used to detect biotinylated Wnt5a, and HRP activity was measured as a function of chemiluminescence detection at 428 nm. […]

[9] = biological target: T2, Wnt5a binding to FZD4 CRD (Homo sapiens, UniProt Q9ULV1); assay: ELISA of biotinylated Wnt5a binding to FZD CRD-Fc; details: peptide 0-10 μM
T2 construct: hFZD4 CRD-Fc (cat no. 5847-FZ); purchased R&D systems 5847-FZ
T2 sequence (Q9ULV1 40-161 limits assumed): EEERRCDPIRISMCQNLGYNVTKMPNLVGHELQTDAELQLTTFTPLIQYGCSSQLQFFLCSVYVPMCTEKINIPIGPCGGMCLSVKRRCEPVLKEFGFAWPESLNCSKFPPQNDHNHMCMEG
Procedure: as §2, §3

[10] = biological target: T3, Wnt3a binding to FZD4 CRD (Homo sapiens, UniProt Q9ULV1); assay: ELISA of biotinylated Wnt3a binding to FZD CRD-Fc; details: peptide 0-10 μM
T3 construct: hFZD4 CRD-Fc (cat no. 5847-FZ); purchased R&D systems 5847-FZ
T3 sequence (Q9ULV1 40-161 limits assumed): T2 sequence (Q9ULV1 40-161 limits assumed)
Procedure: 384-well Maxisorp plates (cat. no. 464718; Thermo Scientific) were incubated with 30 μL of Neutravidin (cat. no. 31000, Thermo Scientific; 2 μg/mL in PBS) overnight at 4° C. Plates were then washed with PBST and blocked with PBS/1% BSA for 1 hour at RT and then washed with PBST prior to further processing. The binding assay was conducted in 96 well plates (cat no. 83007-374; VWR) which were blocked with PBS/1% BSA overnight at 4° C. hFZD4 CRD-Fc or hFZD7 CRD-Fc (63 ng/mL) were incubated with either Bio-Wnt3a (25 ng/mL) or Bio-Wnt5a (50 ng/mL) in the presence of 4-fold serial dilutions of the indicated peptide in PBS overnight at 4° C. All assays included hFZD9 CRD-mIgG2A protein as a negative control. hFZD7 CRD-His was suspended in 150 mM NaCl, 50 mM Tris-HCl at pH 7.5 and when used in assays an equal volume of the same buffer control was used. The binding assay mixtures were transferred to the Neutravidin coated plates and incubated for ˜1 h at RT. The wells were then washed with PBST, incubated with anti-hIgG1-HRP (1:10,000 suspended in PBS supplemented with 1% BSA; cat. no. A18817, Invitrogen), and washed again with PBST. The signal was developed with the addition of TMB reagent (following the manufacturer's recommendation; KPL; 50-76-00) for 15 min prior to the addition of an equal volume of 1 M phosphoric acid for 10 min Absorbance was measured at 450 nm using a Tekan M1000 plate reader. Values were collected and plotted using Prism Graphpad software. All assay conditions using peptides were at 1% DMSO final concentration.
Without being bound be theory, the substantial conformational change induced by dFz7-21 on hFZD7 CRD, as exemplified by the altered geometry of the lipid binding cavity, may facilitate the accommodation of two Wnt molecules simultaneously onto the hFZD7 CRD dimer (FIG. 4e-h).
Similar results were observed using Wnt3a. […] Binding of Wnt3a to FZD1 CRD, FZD2 CRD, and FZD7 CRD increased in the presence of dFz7-21 at concentrations below about 0.5 μM (FIG. 22E), with the most binding seen in the presence of 0.01 μM-0.05 μM dFz7-21. […] Fz7-21S had no effect on Binding of Wnt3a to any of the FZD CRDs tested (FIG. 22F).

Compound	binding [1]	complex with FZD CRD-Fc resolved by FSEC [2]	binding to sFRPs by FSEC [3]	HEK293S-TB % Remaining Activity ([4]; measured at 100 μM peptide, mean ± standard deviation)	IC50 ([4]; read-out: IC50, Wnt3a-stimulated β-catenin signaling)	L CELLS % Remaining Activity ([5]; measured at 11.11 μM of peptide)	Wnt3a-mediated stabilization of β-catenin ([5]; mouse L cells)	IC50 ([5]; β-catenin by immunofluorescence, Wnt3a 2.5 nM, 5 hours, mean ± standard deviation)	inhibition of Wnt signaling in 6-BIO-treated cells [6]	ΔMW (kDa) ([7]; 1:5, relative to the DMSO control)	homodimerization or oligomerization of hFZD7 CRD-His ([7]; concentration-dependent)	MW (kDa) ([7]; hFZD7 CRD 15.8 μM, protein:peptide 1:1, 2 h)	MW (kDa) ([7]; protein:peptide 1:5)	MW (kDa) ([7]; protein:peptide 1:10)	peptide concentration with the most Wnt5a binding [8]	effect on Wnt5a binding to FZD4 CRD [9]	effect on Wnt3a binding to FZD4 CRD [10]
CSCC[C@H](NC(=O)[C@@H](NC(=O)[C@H](Cc1c[nH]cn1)NC(=O)[C@H](CO)NC(=O)[C@H](Cc1c[nH]c2ccccc12)NC(=O)[C@H](Cc1ccccc1)NC(=O)[C@H](CCC(=O)O)NC(=O)[C@H](CC(C)C)NC(=O)[C@H](CC(=O)O)NC(=O)[C@H](CC(=O)O)NC(=O)[C@H](CO)NC(=O)[C@@H]1CCCN1C(=O)[C@H](CC(C)C)NC(=O)c1ccc2c(c1)C(=O)OC21c2ccc(O)cc2Oc2cc(O)ccc21)C(C)C)C(=O)N[C@@H](Cc1ccc(O)cc1)C(N)=O [5FAM-Fz7-21S] (5FAM-LPSDDLEFWSHVMY-NH2; N-terminus and C-terminus assumed)	no detectable binding	no complex was observed	not found to bind	–	–	–	–	–	–	–	–	–	–	–	–	–	–
LPSDDLEFWCHVMY [Fz7-21]	–	–	–	5.15 ± 2.88%	0.09 to 0.1 µM	50.98^G ± 3.76%	blocked	0.05 ± 0.03 µM	Neither Fz7-21 nor Fz7-21S inhibited	6.4 kDa	induced homodimerization or oligomerization	21.9 kDa	27.3 kDa	32 kDa	0.1 µM	did not show any effect; also recorded: no such effect	did not show any effect; also recorded: Neither Fz7-21 nor dFz7-21 had any effect

— patent US20190359653A1, “SELECTIVE PEPTIDE INHIBITORS OF FRIZZLED” (Genentech, Inc., priority 2016, published 2019)
